Assay [1] deals with Pseudomonas aeruginosa. Put plainly: Inhibition of Pseudomonas aeruginosa OXA-24/40 assessed as potentiation of piperacillin-induced antibacterial activity at 4 ug/ml by CLSI based broth microdilution method (reference value: > […] ug/ml).
Assay [2] relates to Pseudomonas aeruginosa. Put plainly: Inhibition of Pseudomonas aeruginosa AmpC assessed as potentiation of piperacillin-induced antibacterial activity at 4 ug/ml by CLSI based broth microdilution method (reference value: > […] ug/ml). A general note: Dilution methods test growth across graded concentrations, often in twofold steps.
Assay [3] deals with Pseudomonas aeruginosa. Put plainly: Inhibition of Pseudomonas aeruginosa KPC-2 assessed as potentiation of piperacillin-induced antibacterial activity at 4 ug/ml by CLSI based broth microdilution method (reference value: > […] ug/ml).
The subject of assay [4] is Acinetobacter baumannii. Put plainly: Antibacterial activity against Acinetobacter baumannii Ab1 clinical isolate harboring OXA-23 infected in BALB/c mouse pneumonia model assessed as reduction in bacterial burden by measuring bacterial growth at 50 mg,kg, im after 22 hrs co-treatment with imipenem. The assay is classed as functional.
The test system of assay [5] is Beta-lactamase (Acinetobacter baumannii), Q8RLA6 [Y112A]. Put plainly: Inhibition of Acinetobacter baumannii OXA-24 Y112A mutant by spectrophotometric method relative to control. The following applies: concentration not given here.
Chain of Beta-lactamase (Acinetobacter baumannii), Q8RLA6 [Y112A] (Q8RLA6 whole entry Y112A): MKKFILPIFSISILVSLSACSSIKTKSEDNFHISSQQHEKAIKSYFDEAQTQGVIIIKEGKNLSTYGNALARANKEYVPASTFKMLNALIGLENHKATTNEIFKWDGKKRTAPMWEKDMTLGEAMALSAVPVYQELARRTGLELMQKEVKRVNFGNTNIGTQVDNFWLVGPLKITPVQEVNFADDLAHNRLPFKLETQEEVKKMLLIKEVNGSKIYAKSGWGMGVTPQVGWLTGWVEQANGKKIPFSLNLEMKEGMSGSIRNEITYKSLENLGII
Assay [6] is described as follows: Inhibition of Acinetobacter baumannii OXA-24 by spectrophotometric method.
Assay [7] relates to Acinetobacter baumannii. Put plainly: Antibacterial activity against Acinetobacter baumannii JC12/04 clinical isolate harboring OXA-24/40 infected in BALB/c mouse pneumonia model assessed as reduction in bacterial burden by measuring bacterial growth at 50 mg,kg, im after 22 hrs co-treatment with imipenem. In kind it is functional.
Assay [8] concerns Acinetobacter baumannii. Put plainly: Inhibition of OXA-24/40 in Acinetobacter baumannii assessed as potentiation of meropenem-induced antibacterial activity by CLSI based broth microdilution method.
Assay [9] has as its system Acinetobacter baumannii. Briefly: Antibacterial activity against Acinetobacter baumannii ATCC 17978 harboring OXA-24/40 infected in BALB/c mouse pneumonia model assessed as reduction in bacterial burden by measuring bacterial growth at 50 mg,kg, im after 22 hrs co-treatment with imipenem. The assay is classed as functional.
For assay [10], the system named is Acinetobacter baumannii. Briefly: Inhibition of OXA-24/40 in Acinetobacter baumannii assessed as potentiation of imipenem-induced antibacterial activity by CLSI based broth microdilution method.
The subject of assay [11] is Acinetobacter baumannii. Briefly: Inhibition of Acinetobacter baumannii OXA-24 by spectrophotometry relative to control. The following applies: concentration not given here.
The subject of assay [12] is Acinetobacter baumannii. Briefly: Antibacterial activity against Acinetobacter baumannii ATCC 17978 harboring OXA-23 infected in BALB/c mouse pneumonia model assessed as reduction in bacterial burden by measuring bacterial growth at 50 mg,kg, im after 22 hrs co-treatment with imipenem. The assay is classed as functional.
Assay [13] relates to Beta-lactamase (Acinetobacter baumannii), Q8RLA6 [Y112A,M223A]. Put plainly: Inhibition of Acinetobacter baumannii OXA-24 Y112A/M223A mutant by spectrophotometric method relative to control. The following applies: concentration not given here.
Chain of Beta-lactamase (Acinetobacter baumannii), Q8RLA6 [Y112A,M223A] (Q8RLA6 whole entry Y112A/M223A): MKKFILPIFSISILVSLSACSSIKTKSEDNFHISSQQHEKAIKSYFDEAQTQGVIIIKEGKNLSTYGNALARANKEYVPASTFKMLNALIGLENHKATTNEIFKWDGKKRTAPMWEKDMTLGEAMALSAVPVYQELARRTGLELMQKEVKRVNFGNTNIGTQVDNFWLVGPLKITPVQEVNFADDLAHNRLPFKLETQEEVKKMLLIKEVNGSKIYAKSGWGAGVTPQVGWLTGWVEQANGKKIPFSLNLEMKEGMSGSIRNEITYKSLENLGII
The test system of assay [14] is Escherichia coli. Put plainly: Potentiation of cefepime-induced antibacterial activity against Escherichia coli at 8 ug/ml by CLSI based microdilution method. The assay is classed as functional.
The subject of assay [15] is Klebsiella pneumoniae. Briefly: Potentiation of cefepime-induced antibacterial activity against Klebsiella pneumoniae at 8 ug/ml by CLSI based microdilution method. In kind it is functional.
The test system of assay [16] is Pseudomonas aeruginosa. Put plainly: Antibacterial activity against Pseudomonas aeruginosa haboring OXA-24/40 assessed as reduction in microbial growth by CLSI based broth microdilution method. In kind it is functional.
Assay [17] has as its system Pseudomonas aeruginosa. Put plainly: Antibacterial activity against Pseudomonas aeruginosa haboring AmpC assessed as reduction in microbial growth by CLSI based broth microdilution method. The assay is classed as functional.
For assay [18], the system named is Pseudomonas aeruginosa. Put plainly: Antibacterial activity against Pseudomonas aeruginosa haboring KPC-2 assessed as reduction in microbial growth by CLSI based broth microdilution method. The assay is classed as functional.
The subject of assay [19] is Enterobacteriaceae. Put plainly: Inhibition of Beta-lactamase OXA-48 in Enterobacteriaceae assessed as potentiation of imipenem-induced antibacterial activity by CLSI based agar dilution method. (In general: Agar dilution tests growth on a series of plates holding different concentrations.)
Assay [20] has as its system Enterobacteriaceae. Briefly: Inhibition of Beta-lactamase KPC in Enterobacteriaceae assessed as potentiation of imipenem-induced antibacterial activity by CLSI based agar dilution method.
In assay [21] the test system is Enterobacteriaceae. Put plainly: Inhibition of Beta-lactamase KPC in Enterobacteriaceae assessed as potentiation of meropenem-induced antibacterial activity by CLSI based agar dilution method.
Assay [22] concerns Enterobacteriaceae. Briefly: Inhibition of OXA-181 in Enterobacteriaceae assessed as potentiation of meropenem-induced antibacterial activity by CLSI based agar dilution method.
Assay [23] deals with Enterobacteriaceae. Put plainly: Inhibition of OXA-181 in Enterobacteriaceae assessed as potentiation of imipenem-induced antibacterial activity by CLSI based agar dilution method.
The subject of assay [24] is Enterobacteriaceae. Briefly: Inhibition of Beta-lactamase OXA-48 in Enterobacteriaceae assessed as potentiation of meropenem-induced antibacterial activity by CLSI based agar dilution method.
Assay [25] is described as follows: Inhibition of NDM1 (unknown origin) using nitrocefin as substrate incubated for 10 mins by UV spectra analysis. The arrangement: species or system Bacteria.
Assay [26] has as its system Escherichia coli. Briefly: Antibacterial activity against Escherichia coli by CLSI based microdilution method.
Assay [27] has as its system Klebsiella pneumoniae. Put plainly: Antibacterial activity against Klebsiella pneumoniae by CLSI based microdilution method.
A further assay addresses Beta-lactamase TEM (Escherichia coli, UniProt P62593). Put plainly: Inhibition of Escherichia coli TEM-1 beta-lactamase.
Assay [28] in a line: Inhibition of AmpC beta-lactamase (unknown origin) by Cheng-Prusoff equation analysis. The arrangement: species or system Bacteria.
Assay [29] has as its system Escherichia coli. Briefly: Antibacterial activity against Escherichia coli harboring beta-lactamase infected in mouse relative to control. In kind it is functional.
For assay [30], the system named is Acinetobacter baumannii. Briefly: Inhibition of Acinetobacter baumannii PBP2 assessed as ratio of Kinact to Ki by SDS-PAGE based fluorescence assay.
In assay [31] the test system is Escherichia coli. Briefly: Inhibition of Escherichia coli PBP2 assessed as ratio of Kinact to Ki by SDS-PAGE based fluorescence assay.
The test system of a further assay is Staphylococcus. Put plainly: Antibacterial activity against methicillin-sensitive Staphylococcus. The assay is classed as functional.

What is called inhibition is the relative decrease from the control value, in per cent. A high value points to strong suppression. A word on the Ki: it is the equilibrium dissociation constant of an inhibitor or competing ligand from its target. A high value points to a looser hold on the target. What is called MIC90 is the lowest concentration that inhibits either 90% of growth or 90% of the strains tested, depending on the study. Broadly, the IC50 is the point on the concentration scale where inhibition reaches its midpoint. A higher IC50 goes with weaker potency in that assay.

Converted amounts (≈) assume the structure as drawn.

Chain of Beta-lactamase TEM (P62593 whole entry): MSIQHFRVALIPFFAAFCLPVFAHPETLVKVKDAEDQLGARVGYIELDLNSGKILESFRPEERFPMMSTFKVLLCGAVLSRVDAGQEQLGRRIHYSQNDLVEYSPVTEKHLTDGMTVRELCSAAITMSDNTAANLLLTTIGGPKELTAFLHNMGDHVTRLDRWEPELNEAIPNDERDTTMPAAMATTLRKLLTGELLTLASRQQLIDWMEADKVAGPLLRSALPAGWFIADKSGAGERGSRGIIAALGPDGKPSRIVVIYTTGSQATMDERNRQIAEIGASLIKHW

For `NC(=O)[C@@H]1CC[C@@H]2CN1C(=O)N2OS(=O)(=O)O`, the MIC amounted to 64 µg/mL in the assay with Pseudomonas aeruginosa [1], 8 µg/mL with Pseudomonas aeruginosa [2] and 8 µg/mL with Pseudomonas aeruginosa [3].

Take `CC1=C[C@@H](C(N)=O)N2C[C@@H]1N(OS(=O)(=O)O)C2=O`: the values for the MIC with Pseudomonas aeruginosa [1], with Pseudomonas aeruginosa [2] and in the assay on Pseudomonas aeruginosa [3] were 16 µg/mL, 8 µg/mL and 4 µg/mL, respectively.

Consider `C[C@]1(COC(=O)Cc2ccc(O)c(O)c2)[C@H](C(=O)O)N2C(=O)/C(=C/c3ccccn3)[C@H]2S1(=O)=O`, for which the Activity came out at 1.7 log10CFU/g in the assay with Acinetobacter baumannii [4], 4.5 log10CFU/g with Acinetobacter baumannii [7], 2.5 log10CFU/g in the assay with Acinetobacter baumannii [9] and 4 log10CFU/g with Acinetobacter baumannii [12]. In addition, the inhibition (in assay [5]; with Acinetobacter baumannii [11]; in assay [13]) was 100% throughout. In addition, the Ki in assay [6] is 0.7 µM. For the same molecule, the MIC in the assay with Acinetobacter baumannii [8] and with Acinetobacter baumannii [10] was 1 µg/mL throughout.

As for `Cn1cc[n+](C[C@@]2(C)[C@H](C(=O)[O-])N3C(=O)C[C@H]3S2(=O)=O)n1` [ENMETAZOBACTAM], the MIC90 in the assay on Escherichia coli [14] stood at 0.5 µg/mL; in the assay on Klebsiella pneumoniae [15], 1 µg/mL.

On to `CCN1CCN(C(=O)N[C@@H](C(=O)N[C@@H]2C(=O)N3[C@@H]2SC(C)(C)[C@@H]3C(=O)O)c2ccccc2)C(=O)C1=O` [PIPERACILLIN], for which the MIC with Pseudomonas aeruginosa [16], in the assay with Pseudomonas aeruginosa [17] and in the assay on Pseudomonas aeruginosa [18] was greater than 64 µg/mL each time.

For `C=C(C)C1=C[C@@H](COC)N2C[C@@H]1N(OS(=O)(=O)O)C2=O`, the MIC with Pseudomonas aeruginosa [1], with Pseudomonas aeruginosa [2] and with Pseudomonas aeruginosa [3] was greater than 64 µg/mL throughout.

Regarding `CC1=C[C@@H](CO)N2C[C@@H]1N(OS(=O)(=O)O)C2=O`, the values for the MIC in the assay with Pseudomonas aeruginosa [1], in the assay with Pseudomonas aeruginosa [2] and with Pseudomonas aeruginosa [3] were 64 µg/mL, 32 µg/mL and 8 µg/mL, respectively.

As to `N#C[C@@H]1CC[C@@H]2CN1C(=O)N2OS(=O)(=O)O`, the MIC with Enterobacteriaceae [19], with Enterobacteriaceae [20], in the assay on Enterobacteriaceae [21], with Enterobacteriaceae [22], in the assay on Enterobacteriaceae [23] and in the assay on Enterobacteriaceae [24] was less than 2 µg/mL throughout.

In the case of `N[C@H](CN[C@H](CN[C@@H](CC(=O)O)C(=O)O)C(=O)O)C(=O)O`, in [25], the midpoint of inhibition, the IC50, lay at 10.2 µM.

`CO/N=C(\C(=O)N[C@@H]1C(=O)N2C(C(=O)[O-])=C(C[N+]3(C)CCCC3)CS[C@H]12)c1csc(N)n1` [CEFEPIME]: the figures for the MIC90 against Escherichia coli [26] and with Klebsiella pneumoniae [27] were greater than 64 µg/mL and 16 µg/mL (≈ 33.3 µM), respectively.

With `CC(=O)N[C@@H](Cc1cccc(C(=O)O)c1)B(O)O`, the affinity at Beta-lactamase TEM, expressed as Ki, was 0.11 µM.

`O=C(NCB(O)O)S(=O)(=O)c1ccnc(-c2nnn[nH]2)c1` registered a Ki in assay [28] of 0.8 nM. This molecule also yielded an Activity in the assay with Escherichia coli [29] of 65%.

Turning to `CC1=C[C@@H]2CN(C(=O)N2OS(=O)(=O)O)[C@@H]1C(N)=O`, the results for the Ratio with Acinetobacter baumannii [30] and in the assay with Escherichia coli [31] were 1 ×10³ /M/s and 1 ×10⁴ /M/s, respectively. For the same molecule, the MIC is 8 µg/mL in the assay with Pseudomonas aeruginosa [1], 2 µg/mL in the assay with Pseudomonas aeruginosa [2] and 4 µg/mL in the assay with Pseudomonas aeruginosa [3].

In [25], `N[C@@H](CN[C@@H](CN[C@H](CC(=O)O)C(=O)O)C(=O)O)C(=O)O` returned an IC50 of 11.6 µM.

The molecule `N[C@H](CN[C@@H](CN[C@@H](CC(=O)O)C(=O)O)C(=O)O)C(=O)O` returned an IC50 in assay [25] of 11.9 µM.

`O=C(NCB(O)O)S(=O)(=O)c1cc(-c2nnn[nH]2)cc(C(F)(F)F)c1`: affinity in assay [28] was put at a Ki of 0.05 nM.

Molecule `N[C@@H](CN[C@@H](CN[C@@H](CC(=O)O)C(=O)O)C(=O)O)C(=O)O` yielded an IC50 in assay [25] of 9.3 µM.

Take `C[C@]1(Cn2ccnn2)[C@H](C(=O)O)N2C(=O)C[C@H]2S1(=O)=O`: the MIC in the assay on Acinetobacter baumannii [8] and in the assay on Acinetobacter baumannii [10] was 16 µg/mL throughout.

In turn, `Cn1cc(/C=C2/C(=O)N3C(C(=O)O)=CS[C@H]23)nn1` returned an MIC in the assay with Staphylococcus of 1 µg/mL (≈ 3.78 µM).

In turn, `N[C@@H](CN[C@H](CN[C@@H](CC(=O)O)C(=O)O)C(=O)O)C(=O)O` showed an IC50 in [25] of 12.5 µM.

`CC1=C[C@@H](C#N)N2C[C@@H]1N(OS(=O)(=O)O)C2=O`: the MIC with Pseudomonas aeruginosa [1] was 8 µg/mL; with Pseudomonas aeruginosa [2], greater than 64 µg/mL; in the assay with Pseudomonas aeruginosa [3], 64 µg/mL.

For the molecule `O=C(NCB(O)O)S(=O)(=O)c1cc(Cl)cc(-c2nnn[nH]2)c1`, in assay [28], the Ki was 0.2 nM.

Source of the values: ChEMBL document CHEMBL4402541, “β-Lactamase Inhibitors To Restore the Efficacy of Antibiotics against Superbugs” (J Med Chem, 2020).
